The text below walks through data of PubChem BioAssay AID1288 (Columbia University Molecular Screening Center, 2008).

Assay [1] in a line: inhibitors of TNFa-induced E-selectin expression, confirmation, imaging, retest plus dose response, cell count (AID 1288). The following applies: human endothelial cells, TNFa-induced E-selectin, imaging; cell count toxicity; at 10 µM; stronger effect = lower value.
The test system of assay [2] is human endothelial cells, TNFa-induced E-selectin, imaging. The description is as above.

The source made the active and inactive calls. The rule behind the calls is not given here.

For `COc1ccc(CS(=O)(=O)/C(Cl)=C(/Cl)C(=O)Nc2ccc(OC)nc2)cc1`, in assay [1], the cell count came to 105%. Also, the IC50 in assay [2] was > 10 µM (inactive).

For the molecule `COc1ccc(NC(=O)/C(Cl)=C(/Cl)S(=O)Cc2ccccc2Cl)cn1` (centres undefined), the cell count in assay [1] came out at 99.9%. Further, in assay [2], the IC50 was 5.39 µM.

As for `O=C(CS(=O)c1ccc(C(F)(F)F)cc1[N+](=O)[O-])Oc1ccccc1` (centres undefined), in assay [1], the cell count is 88.5%. The IC50 in assay [2] is > 10 µM (inactive).

For `CCOc1cc(C(=O)NCc2ccc(-c3nc4ccccc4o3)cc2)cc(OCC)c1OCC`, the cell count in assay [1] stood at 22.9%. In addition, the IC50 in assay [2] is 2.39 µM.

On to `Cc1ccccc1NC1=C/C(=N\S(=O)(=O)c2cccs2)c2ccccc2C1=O`, for which the cell count in assay [1] was determined as 107%. Also, in assay [2], the IC50 is > 10 µM (inactive).

`C=CS(=O)(=O)c1ccc(Oc2ccc(S(=O)(=O)C=C)cc2)cc1`: in assay [1], the cell count was found to be 95.2%. Further, the IC50 in assay [2] is > 10 µM (inactive).

On to `Cn1cc([N+](=O)[O-])c(C(=O)Nc2nc(-c3ccc(Cl)cc3)cs2)n1`, for which the cell count in assay [1] is 97.8%. Also, the IC50 in assay [2] is > 10 µM (inactive).

As for `O=C(Nc1ccc2oc(-c3cccnc3)nc2c1)c1ccc([N+](=O)[O-])o1`, the cell count in assay [1] came out at 54.4%. In addition, the IC50 in assay [2] was 2.73 µM.

As for `CCN1C/C(=C/c2ccc(OC)c(O)c2)C(=O)/C(=C/c2ccc(OC)c(O)c2)C1`, the cell count in assay [1] stood at 15.1%. Further, the IC50 in assay [2] is 3.01 µM.

On to `Cc1cc2cc(C=C(C#N)C#N)c(Cl)nc2cc1C`, for which the cell count in assay [1] worked out at 4.88%. Further, the IC50 in assay [2] is 2.39 µM.

As for `Cc1ccc(-c2nc(NC(=O)c3nn(C)cc3[N+](=O)[O-])sc2C)cc1`, the cell count in assay [1] amounted to 69.6%. Moreover, in assay [2], the IC50 is 5.25 µM.

On to `CC(C)Oc1ccc(/C=N/NC(=O)C(CSCc2ccccc2)NC(=O)c2ccc([N+](=O)[O-])cc2)cc1` (centres undefined), for which, in assay [1], the cell count stood at 71.8%. Further, the IC50 in assay [2] was > 10 µM (inactive).

For the molecule `CC(C)(C)C1=CC(=O)C(=O)C(C(C)(C)C)=C1`, in assay [1], the cell count was 95%. For the same molecule, the IC50 in assay [2] is > 10 µM (inactive).

For `COc1ccc(NC(=O)/C(Cl)=C(/Cl)S(=O)(=O)Cc2ccc(C)cc2)cn1`, the cell count in assay [1] turned out to be 89.6%. For the same molecule, the IC50 in assay [2] is > 10 µM (inactive).

In the case of `O=S1(=O)C=C(Sc2nnc(-c3ccccc3)o2)c2ccccc21`, the cell count in assay [1] was 72.7%. In assay [2], the IC50 is > 10 µM (inactive).

On to `Cc1ccc(Cl)c(NC(=O)COC(=O)c2ccccc2C(=O)c2ccc(Cl)c([N+](=O)[O-])c2)c1Cl`, for which, in assay [1], the cell count was found to be 96.8%. Further, the IC50 in assay [2] is > 10 µM (inactive).

`COc1cccc(N2CCN(c3ncnc4c3[nH]c3ccc(F)cc34)CC2C)c1` (centres undefined): in assay [1], the cell count came out at 40.9%. Moreover, in assay [2], the IC50 was 1.41 µM.

Consider `COCC(C)NC(=O)CCS(=O)(=O)c1nc(-c2ccc(OC)cc2)cc(C(F)(F)F)n1` (centres undefined), for which the cell count in assay [1] worked out at 83%. In addition, in assay [2], the IC50 is > 10 µM (inactive).

With `O=C(Nc1ccccc1)c1nnsc1S(=O)c1ccc(Cl)cc1` (centres undefined), in assay [1], the cell count is 16.1%. The concentration for half-maximal inhibition (IC50) in assay [2] is 3.58 µM.

Turning to `CN1C2CCC1/C(=C/c1ccccn1)C(=O)/C2=C\c1ccccn1`, in assay [1], the cell count was determined as 51.6%. For the same molecule, in assay [2], the IC50 was 2.8 µM.

Turning to `O=C(Nc1ccccc1)C1=C(c2ccccc2)S(=O)(=O)CCS1(=O)=O`, the cell count in assay [1] was found to be 77.8%. The half-maximal inhibitory concentration (IC50) in assay [2] is 7.63 µM.

In the case of `COCCN(CC(=O)NC1CCCCC1)C(=O)/C=C/C(=O)c1ccc(OC)cc1O`, the cell count in assay [1] was found to be 95%. Besides, the IC50 in assay [2] was > 10 µM (inactive).

As to `O=C(/C=C/c1cccc([N+](=O)[O-])c1)n1cnc2ccccc21`, in assay [1], the cell count came out at 19.1%. Also, the IC50 in assay [2] is 3.81 µM.

With `Oc1ccc(N2CCN(c3ncnc4sc(-c5ccccc5)cc34)CC2)cc1`, the cell count in assay [1] came out at 25.6%. The IC50 in assay [2] is 1.88 µM.

As to `Cc1nc2scc(-c3ccccc3)c2c(=O)n1N=C1C=CC(=O)C=C1`, in assay [1], the cell count amounted to 92.3%. In addition, the IC50 in assay [2] was > 10 µM (inactive).

Consider `C#CC(=O)N(c1cccc(OC)c1)C(C(=O)NC1CCCC1)c1cccs1` (centres undefined), for which the cell count in assay [1] was 90%. Also, in assay [2], the IC50 is > 10 µM (inactive).

Regarding `CN(C)C(=O)Oc1c(Cl)cc(Cl)c2cccnc12`, in assay [1], the cell count was 20.8%. The IC50 in assay [2] is 2.55 µM.

With `Cc1ccc2nc3cc([N+](=O)[O-])cc([N+](=O)[O-])c3cc2c1`, the cell count in assay [1] came to 101%. In addition, the IC50 in assay [2] is > 10 µM (inactive).

For the molecule `CC1C/C(=C/c2ccncc2)C(=O)/C(=C/c2ccncc2)C1` (centres undefined), the cell count in assay [1] is 84.9%. Also, the IC50 in assay [2] was 4.92 µM.

Regarding `O=C(OCn1ncc(Cl)c(Cl)c1=O)c1ccccc1Cl`, in assay [1], the cell count was 45.3%. For the same molecule, the IC50 in assay [2] was > 10 µM (inactive).

As to `CN1C(=O)/C(=C/c2cccn2-c2ccc3ccccc3c2)C(=O)NC1=S`, the cell count in assay [1] turned out to be 106%. In assay [2], the IC50 was 6.93 µM.

For the molecule `CCc1ccc(N2C(=O)NC(=O)/C(=C/c3cccn3CCOc3ccc(C(C)CC)cc3)C2=O)cc1` (centres undefined), the cell count in assay [1] worked out at 17.9%. Moreover, the IC50 in assay [2] is 1.37 µM.

For `COC(=O)c1ccccc1NC(=O)c1ccc(-c2cccc(Cl)c2)o1`, in assay [1], the cell count was determined as 13.8%. Further, the concentration for half-maximal inhibition (IC50) in assay [2] was 2.09 µM.

As to `CCOC(=O)CS(=O)(=O)c1nc(-c2ccccc2)cc(C(F)(F)F)n1`, the cell count in assay [1] is 106%. Further, the IC50 in assay [2] is > 10 µM (inactive).

As for `CN1/C(=C/C(=O)c2nc(S(C)(=O)=O)ncc2Cl)C(C)(C)c2ccccc21`, in assay [1], the cell count came to 97.9%. For the same molecule, the IC50 in assay [2] is > 10 µM (inactive).

Consider `COc1ccc(Oc2cc(NC(=O)c3nn(C)cc3[N+](=O)[O-])cc([N+](=O)[O-])c2)cc1`, for which the cell count in assay [1] stood at 23.9%. The IC50 in assay [2] is 3.5 µM.

In the case of `CCOC(=O)/C=C/S(=O)(=O)c1ccc(NC(C)=O)cc1`, in assay [1], the cell count came out at 6.27%. Further, in assay [2], the IC50 was 1.39 µM.

As for `CCCn1c(=NC(=O)c2ccco2)c(C(=O)OCC)cc2c(=O)n3ccccc3nc21`, in assay [1], the cell count was 64.4%. The IC50 in assay [2] was 4.41 µM.

Regarding `COC(=O)/C=C/S(=O)(=O)c1ccc(NC(C)=O)cc1`, the cell count in assay [1] worked out at 106%. Further, the IC50 in assay [2] was > 10 µM (inactive).

As for `O=C(NCCC1=CCCCC1)c1coc(=O)c(Br)c1`, the cell count in assay [1] stood at 1.14%. Besides, the IC50 in assay [2] was 2.77 µM.

With `C=C1C(=O)[C@@]23[C@H](O)C[C@@H]4C(C)(C)CC[C@H](O)[C@@]4(C)[C@@H]2CC[C@@H]1[C@H]3O`, the cell count in assay [1] was determined as 10.1%. Besides, the IC50 in assay [2] is 2 µM.

Regarding `COc1ccc(NC(=O)/C(Cl)=C(/Cl)S(=O)Cc2ccc(Cl)cc2)cn1` (centres undefined), the cell count in assay [1] was 0.27%. For the same molecule, the IC50 in assay [2] was 1.66 µM.

In the case of `O=C(Nc1ccc2nc(SCc3ccc(Cl)cc3)sc2c1)c1ccccc1C(=O)N1CCOCC1`, the cell count in assay [1] came to 40%. Besides, the IC50 in assay [2] is 2.83 µM.

With `COc1cccc(-n2nc(C#N)c(Cl)cc2=O)c1`, the cell count in assay [1] amounted to 104%. Also, the IC50 in assay [2] was > 10 µM (inactive).

On to `CC(C)(C)C(=O)/C(=C\c1ccc([N+](=O)[O-])cc1)n1cncn1`, for which the cell count in assay [1] stood at 94.9%. In addition, in assay [2], the IC50 is > 10 µM (inactive).

Consider `N#CC(C#N)=C1C=CC=CN1/C(=C\c1ccccc1Cl)C(=O)c1ccccc1`, for which, in assay [1], the cell count worked out at 68.3%. Besides, in assay [2], the IC50 is 4.99 µM.

For `COC(=O)C1CN(C#N)N(c2ccc(Cl)cc2)C12c1ccccc1-c1ccccc12` (centres undefined), the cell count in assay [1] was determined as 113%. Besides, in assay [2], the IC50 is > 10 µM (inactive).

Consider `CN(CCC#N)C(=O)COC(=O)c1ccccc1C(=O)c1ccc(Cl)c([N+](=O)[O-])c1`, for which, in assay [1], the cell count was found to be 15.6%. Moreover, in assay [2], the half-maximal inhibitory concentration (IC50) was 1.37 µM.

`CC(C)(C)C(=O)/C(=C/c1cccc([N+](=O)[O-])c1)n1cncn1`: in assay [1], the cell count is 101%. In addition, the IC50 in assay [2] was > 10 µM (inactive).

`O=C(c1ccc([N+](=O)[O-])cc1)N(Cc1ccc(Br)cc1)N1C(=O)CCCC1=O`: the cell count in assay [1] is 95.3%. The IC50 in assay [2] is 6.82 µM.

As to `Cn1c(SC2=CS(=O)(=O)c3ccccc32)nc2ccccc21`, the cell count in assay [1] was determined as 13.4%. Also, in assay [2], the IC50 is 2.53 µM.

In the case of `O=S(=O)(/C(=C/c1ccc(C(F)(F)F)cc1)c1nc2ccccc2[nH]1)c1ccccc1`, the cell count in assay [1] stood at 104%. Moreover, the IC50 in assay [2] was > 10 µM (inactive).

Regarding `COc1ccc(NC(=O)c2cc3c(Cl)nc4ccccc4c3s2)c(OC)c1`, the cell count in assay [1] is 89.6%. In assay [2], the IC50 is > 10 µM (inactive).

As to `O=C(OCn1ncc(Cl)c(Cl)c1=O)c1ccc(F)cc1`, the cell count in assay [1] stood at 107%. Further, the IC50 in assay [2] was > 10 µM (inactive).

`O=Cc1s/c(=N\S(=O)(=O)c2ccccc2)n(CCCCl)c1Cl`: the cell count in assay [1] stood at 108%. The IC50 in assay [2] was > 10 µM (inactive).

In the case of `Cc1ccc(-c2nc(NC(=O)c3nn(C)cc3[N+](=O)[O-])sc2C)cc1C`, the cell count in assay [1] worked out at 106%. Besides, the IC50 in assay [2] was > 10 µM (inactive).

Consider `COc1ccc(-c2nnc(SCC(=O)N3CCOCC3)o2)cc1OC`, for which, in assay [1], the cell count was 18.5%. In addition, in assay [2], the IC50 was 4.05 µM.
